# Results as given in ChEMBL document CHEMBL1201862, “PubChem BioAssay data set” (2004).
#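 96-well plates; 48 h exposure; 5 concentrations. Endpoints by linear interpolation between flanking doses. Not reached: highest tested concentration assigned. GI50: concentration for 50% inhibition of growth.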 The source made the active and inactive calls. Rule as the data show it: active = GI50 up to about 1.1 µM and inactive = higher.
# Key:
# Assay in all cases: DTP human tumour cell line panel, 48 h
# RPMI-8226 = test system: RPMI-8226
# OVCAR-4 = test system: OVCAR-4
# TK-10 = test system: TK-10
# EKVX = test system: EKVX
# COLO 205 = test system: COLO 205
# IGROV-1 = test system: IGROV-1
# A549 = test system: A549
# SK-OV-3 = test system: SK-OV-3
# M14 = test system: M14
# K562 = test system: K562
# HOP-92 = test system: HOP-92
# SF-268 = test system: SF-268
# SNB-75 = test system: SNB-75
# SNB-19 = test system: SNB-19
# NCI-H226 = test system: NCI-H226
# SR = test system: SR
Structure (SMILES),GI50 (RPMI-8226),GI50 (OVCAR-4),GI50 (TK-10),GI50 (EKVX),GI50 (COLO 205),GI50 (IGROV-1),GI50 (A549),GI50 (SK-OV-3),GI50 (M14),GI50 (K562),GI50 (HOP-92),GI50 (SF-268),GI50 (SNB-75),GI50 (SNB-19),GI50 (NCI-H226),GI50 (SR)
CCC(=O)N1C(=O)OCC1C(C)C (configuration not stated),> 100 µM (inactive),> 100 µM (inactive),> 100 µM (inactive),> 100 µM (inactive),> 100 µM (inactive),> 100 µM (inactive),> 100 µM (inactive),> 100 µM (inactive),> 100 µM (inactive),> 100 µM (inactive),> 100 µM (inactive),> 100 µM (inactive),> 100 µM (inactive),> 100 µM (inactive),,
CCCCCCCCCCCCCC(=O)CSCCNC(=O)CCNC(=O)[C@@H](O)C(C)(C)COP(=O)(O)OP(=O)(O)OCC1OC(n2cnc3c(N)ncnc32)C(O)C1OP(=O)(O)O (some centres not stated),,6.75 µM (inactive),68.2 µM (inactive),17.9 µM (inactive),13.1 µM (inactive),13.6 µM (inactive),20.1 µM (inactive),14.6 µM (inactive),18.1 µM (inactive),,11.5 µM (inactive),20 µM (inactive),5.7 µM (inactive),18.6 µM (inactive),18.2 µM (inactive),
O=C(O)CCSC(=O)Nc1ccccc1,> 100 µM (inactive),> 100 µM (inactive),> 100 µM (inactive),> 100 µM (inactive),> 100 µM (inactive),94.6 µM (inactive),> 100 µM (inactive),,> 100 µM (inactive),> 100 µM (inactive),,44.8 µM (inactive),,> 100 µM (inactive),> 100 µM (inactive),> 100 µM (inactive)
C[C@H]1NC(=O)C2CCCCN2C(=O)CN(C)C(=O)CNC(=O)C2CCCCN2C(=O)[C@@H](NC(=O)c2nc3ccccc3cc2O)[C@@H](C)NC(=O)C2CCCCN2C(=O)CN(C)C(=O)CNC(=O)[C@@H]2CCCCN2C(=O)C1NC(=O)c1nc2ccccc2cc1O (some centres not stated),0.274 µM (active),0.389 µM (active),0.525 µM (active),0.668 µM (active),0.252 µM (active),0.283 µM (active),0.318 µM (active),0.482 µM (active),0.241 µM (active),0.231 µM (active),,0.186 µM (active),0.0598 µM (active),0.241 µM (active),0.0664 µM (active),
N#CC(C#N)=C1NN=C(Cl)c2ccccc21,57.3 µM (inactive),> 100 µM (inactive),> 100 µM (inactive),> 100 µM (inactive),> 100 µM (inactive),> 100 µM (inactive),> 100 µM (inactive),> 100 µM (inactive),> 100 µM (inactive),> 100 µM (inactive),47.2 µM (inactive),72.9 µM (inactive),33.9 µM (inactive),,,
CN(C)c1ccc(/C=C/C(=O)c2ccccc2)cc1Br,13.2 µM (inactive),15.5 µM (inactive),26.1 µM (inactive),> 100 µM (inactive),18.3 µM (inactive),20.2 µM (inactive),34.9 µM (inactive),33 µM (inactive),13.2 µM (inactive),20.6 µM (inactive),,18.2 µM (inactive),16.6 µM (inactive),18.8 µM (inactive),,
CC1CN1c1c(C(=O)/C=C/c2ccccc2)c(-c2ccccc2)nn(C)c1=O (configuration not stated),,16.2 µM (inactive),25.8 µM (inactive),17.3 µM (inactive),16.2 µM (inactive),23.7 µM (inactive),28.6 µM (inactive),31.6 µM (inactive),17.1 µM (inactive),18.2 µM (inactive),13.1 µM (inactive),27.9 µM (inactive),18.8 µM (inactive),24.4 µM (inactive),20.8 µM (inactive),
Cc1ccc(-c2nc3ccccc3c(=O)n2NCC2(O)OCC(O)C(O)C2O)cc1 (configuration not stated),> 100 µM (inactive),> 100 µM (inactive),,> 100 µM (inactive),> 100 µM (inactive),,> 100 µM (inactive),> 100 µM (inactive),> 100 µM (inactive),> 100 µM (inactive),,> 100 µM (inactive),> 100 µM (inactive),> 100 µM (inactive),,> 100 µM (inactive)
Clc1ccc(/C=C/c2csnn2)cc1,,> 100 µM (inactive),> 100 µM (inactive),> 100 µM (inactive),> 100 µM (inactive),> 100 µM (inactive),> 100 µM (inactive),> 100 µM (inactive),> 100 µM (inactive),> 100 µM (inactive),27.1 µM (inactive),> 100 µM (inactive),> 100 µM (inactive),> 100 µM (inactive),> 100 µM (inactive),
CC(C)c1ccc(C(c2ccc(OCC(=O)O)cc2)c2ccc(C(C)C)cc(=O)c2O)c(O)c(=O)c1,4.38 µM (inactive),3.61 µM (inactive),5.3 µM (inactive),4.93 µM (inactive),3.14 µM (inactive),4.33 µM (inactive),3.48 µM (inactive),6.81 µM (inactive),3.18 µM (inactive),3.41 µM (inactive),0.0478 µM (active),,3.29 µM (inactive),5.89 µM (inactive),,
Cc1cc2c(=O)cc(-c3ccc(C(=O)O)cc3)oc2c(C(N)=O)c1C,> 100 µM (inactive),> 100 µM (inactive),> 100 µM (inactive),> 100 µM (inactive),> 100 µM (inactive),> 100 µM (inactive),> 100 µM (inactive),> 100 µM (inactive),> 100 µM (inactive),> 100 µM (inactive),> 100 µM (inactive),> 100 µM (inactive),28.9 µM (inactive),> 100 µM (inactive),,
COC1=CC(C)C2C[C@H]3O[C@H](O)C[C@H]4C(C)C(=O)C(O)C([C@@]2(C)C1=O)[C@@]34C (some centres not stated),> 100 µM (inactive),,> 100 µM (inactive),> 100 µM (inactive),> 100 µM (inactive),> 100 µM (inactive),> 100 µM (inactive),> 100 µM (inactive),> 100 µM (inactive),> 100 µM (inactive),> 100 µM (inactive),,> 100 µM (inactive),,> 100 µM (inactive),
Cn1c(CCC#N)nc2ccc(Br)cc2c1=O,> 100 µM (inactive),> 100 µM (inactive),> 100 µM (inactive),> 100 µM (inactive),> 100 µM (inactive),> 100 µM (inactive),> 100 µM (inactive),> 100 µM (inactive),> 100 µM (inactive),> 100 µM (inactive),> 100 µM (inactive),> 100 µM (inactive),> 100 µM (inactive),,> 100 µM (inactive),
C[n+]1c2ccccc2c(CNc2ccc(S(=O)(=O)N=C(N)N)cc2)c2ccccc21,2.7 µM (inactive),29.1 µM (inactive),29.4 µM (inactive),21 µM (inactive),,16.3 µM (inactive),6.17 µM (inactive),46 µM (inactive),6.05 µM (inactive),6.78 µM (inactive),5.24 µM (inactive),7.06 µM (inactive),4.13 µM (inactive),4.05 µM (inactive),1.6 µM (inactive),
